For 19 compounds, IC50 results are on record in patent publication US20230365582A1, “NOVEL COMPOUNDS HAVING INHIBITORY ACTIVITY ON PROSTAGLANDIN E2 RECEPTOR AND USES THEREOF” (KANAPH THERAPEUTICS INC., priority 2020, published 2023).

One experiment deals with T1, hEP2 (Homo sapiens, UniProt P43116).
T1 construct: expressed in transfected cells; host or cells: HEK293
Nature of the experiment: hEP2 cAMP assay. Format: cell-based. Particulars: HEK293 cells overexpressing hEP2; PGE2 agonist 400 pM; graded per Table 21; read-out: IC50 (nM) EP2 cAMP. Here is the method: HEK293 cells overexpressing hEP2 were cultured in growth medium (GM: MEM (Gibco™, 11095080)/10% HI FBS (Gibco™, 10082147)/1% penicillin/streptomycin). Before the experiment, the growth medium was removed, and starvation medium (HBSS (Gibco™, 14025076)/10% GM) was added. Thereafter, the cells were incubated for 4 hours. The HEK293 cells harboring hEP2 were detached from the culture dish with a non-enzymatic cell dissociation buffer (Gibco™, 15040066). The cells were resuspended in assay buffer (AB: HBSS, 0.1% BSA stabilizer, 0.5 mM IBMX, 5 mM HEPES).
(§1) 1,000 cells in 5 μL of AB were seeded per well in a 384 well plate (Corning™, 3570), and stock solutions of test compounds were prepared at a concentration of 1 mM in DMSO and serially diluted in DMSO to the concentration required for the inhibition dose response curve (test concentration range of 10 μM-0.001 nM). PGE2 (Sigma, P0409, stock solution: 1 μM) was used as an agonist at a final concentration of 400 pM corresponding to EC50-80. 2.5 μL of the diluted compound and 2.5 μL of PGE2 (400 pM final concentration) were transferred to the assay plate, and then the plate was incubated at room temperature for 12 minutes.
(§2) 5 μL of each donor (Eu-cAMP tracer) and acceptor (ULight-anti-cAMP) was added, and the plate was incubated in the dark for 1 hour at room temperature, and then a Varioskan LUX multimode microplate reader was used to obtain the results (excitation: 334 nm, emission: 615 and 665 nm). The resulting FRET fluorescence value (665 nm/615 nm*10000) was converted and then calculated as a percentage of cAMP relative to the DMSO control value. IC50 values and curves were generated with GraphPad Prism software using log (inhibitor) versus response-variable slopes (4 parameters), and the median of multiple experiments was taken as the experiment result.
On the technique in general: Changes in cAMP serve as a functional read-out for many G protein-coupled receptors.

The target of the next experiment is T2, hEP4 (Homo sapiens, UniProt P35408).
T2 construct: expressed in transfected cells; host or cells: HEK293
T2 sequence (P35408 whole entry): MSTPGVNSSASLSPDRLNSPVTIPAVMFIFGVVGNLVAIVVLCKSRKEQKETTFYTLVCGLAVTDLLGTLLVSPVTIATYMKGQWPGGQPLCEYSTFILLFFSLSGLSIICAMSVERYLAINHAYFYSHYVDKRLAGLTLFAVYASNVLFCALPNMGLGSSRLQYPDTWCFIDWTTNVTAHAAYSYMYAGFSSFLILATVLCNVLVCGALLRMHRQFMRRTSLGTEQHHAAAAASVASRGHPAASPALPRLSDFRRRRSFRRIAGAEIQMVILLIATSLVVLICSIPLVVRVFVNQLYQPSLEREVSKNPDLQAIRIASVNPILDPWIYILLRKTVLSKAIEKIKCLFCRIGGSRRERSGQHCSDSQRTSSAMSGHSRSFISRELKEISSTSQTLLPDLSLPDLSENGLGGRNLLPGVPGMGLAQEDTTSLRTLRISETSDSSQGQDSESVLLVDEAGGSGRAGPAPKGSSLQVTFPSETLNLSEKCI
Nature of the experiment: hEP4 cAMP assay. The conditions noted are these: HEK293 cells overexpressing hEP4; PGE2 agonist 20 nM; graded per Table 21; read-out: IC50 (nM) EP4 cAMP. In kind it is cell-based. Here is the method:
HEK293 cells overexpressing hEP4 were cultured in growth medium (GM: MEM (Gibco™, 11095080)/10% HI FBS (Gibco™, 10082147)/1% penicillin/streptomycin). Before the experiment, the growth medium was removed, and starvation medium (HBSS (Gibco™ 14025076)/10% GM) was added. Thereafter, the cells were incubated for 4 hours. HEK293 cells harboring hEP4 were detached from the culture dish with a non-enzymatic cell dissociation buffer (Gibco™, 15040066). The cells were resuspended in assay buffer (AB: HBSS, 0.1% BSA stabilizer, 0.5 mM IBMX, 5 mM HEPES).
as §1, with “plate (Corning®,” for “plate (Corning™,”, “solution: 100” for “solution: 1”, “of 20 nM” for “of 400 pM”, “PGE2 (20 nM” for “PGE2 (400 pM”, “for 18.5” for “for 12”
as §2, with “compared” for “relative”, “slope” for “slopes”

Usually IC50 stands for the concentration at which inhibition is half-maximal.

T1 sequence (P43116 whole entry): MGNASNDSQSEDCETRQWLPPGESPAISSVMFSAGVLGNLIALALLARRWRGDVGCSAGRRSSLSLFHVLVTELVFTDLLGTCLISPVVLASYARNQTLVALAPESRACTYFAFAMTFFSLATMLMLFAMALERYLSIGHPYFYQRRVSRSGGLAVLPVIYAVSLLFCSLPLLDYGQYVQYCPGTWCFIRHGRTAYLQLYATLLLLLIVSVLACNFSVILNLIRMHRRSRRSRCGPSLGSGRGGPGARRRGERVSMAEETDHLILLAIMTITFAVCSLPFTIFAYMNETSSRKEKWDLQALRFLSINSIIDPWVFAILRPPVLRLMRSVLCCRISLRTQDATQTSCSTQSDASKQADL

As to `Cc1sc(C)c(C(=O)NC2CC3(C2)CC(C(=O)O)C3)c1Cc1ccc(-c2ccc(F)c(C(=O)O)c2)cc1` (centres unmarked) [Example 37, 6-(4-((3′-carboxy-4′-fluoro-[1,1′-biphenyl]-4-yl)methyl)-2,5-dimethylthiophene-3-carboxamido)spiro[3.3]heptane-2-carboxylic acid], the IC50 on hEP2 was greater than 10000 nM; at hEP4, 5000 to 10000 nM.

On to `Cc1ccccc1-c1ccc(Cc2c(C)sc(C)c2C(=O)NC2CC3(C2)CC(C(=O)O)C3)cc1` (centres unmarked) [Example 38, 6-(2,5-dimethyl-4-((2′-methyl-[1,1′-biphenyl]-4-yl)methyl)thiophene-3-carboxamido)spiro[3.3]heptane-2-carboxylic acid], for which the IC50 at hEP2 was greater than 10000 nM; at hEP4, 500 to 5000 nM.

Turning to `Cc1sc(C)c(C(=O)NC2CC3(C2)CC(C(=O)O)C3)c1Cc1ccc(-c2cnn(C)c2)cc1` (centres unmarked) [Example 39, 6-(2,5-dimethyl-4-(4-(1-methyl-1H-pyrazol-4-yl)benzyl)thiophene-3-carboxamido)spiro[3.3]heptane-2-carboxylic acid], the IC50 on hEP2 was greater than 10000 nM; on hEP4, 500 to 5000 nM.

Regarding `COc1ccc(-c2ccc(Cc3c(C)sc(C)c3C(=O)NC3CC4(C3)CC(C(=O)O)C4)cc2)cc1F` (centres unmarked) [Example 40, 6-(4-((3′-fluoro-4′-methoxy-[1,1′-biphenyl]-4-yl)methyl)-2,5-dimethylthiophene-3-carboxamido)spiro[3.3]heptane-2-carboxylic acid], the IC50 on hEP2 is 5000 to 10000 nM; at hEP4, less than 500 nM.

As for `COc1cc(C#N)cc(-c2ccc(Cc3c(C)sc(C)c3C(=O)NC3CC4(C3)CC(C(=O)O)C4)cc2)c1` (centres unmarked) [Example 41, 6-(4-((3′-cyano-5′-methoxy-[1,1′-biphenyl]-4-yl)methyl)-2,5-dimethylthiophene-3-carboxamido)spiro[3.3]heptane-2-carboxylic acid], the figures for the IC50 at hEP2 and at hEP4 were 500 to 5000 nM and less than 500 nM, respectively.

As to `Cc1sc(C)c(C(=O)NC2CC3(C2)CC(C(=O)O)C3)c1Cc1ccc(-c2ccc(OC(F)(F)F)cc2)cc1` (centres unmarked) [Example 42, 6-(2,5-dimethyl-4-((4′-(trifluoromethoxy)-[1,1′-biphenyl]-4-yl)methyl)thiophene-3-carboxamido)spiro[3.3]heptane-2-carboxylic acid], the IC50 is greater than 10000 nM on hEP2 and 500 to 5000 nM at hEP4.

For `Cc1sc(C)c(C(=O)NC2CC3(C2)CC(C(=O)O)C3)c1Cc1ccc(-c2cccc(F)c2)cc1` (centres unmarked) [Example 43, 6-(4-((3′-fluoro-[1,1′-biphenyl]-4-yl)methyl)-2,5-dimethylthiophene-3-carboxamido)spiro[3.3]heptane-2-carboxylic acid], the IC50 on hEP2 was 500 to 5000 nM; at hEP4, less than 500 nM.

As to `Cc1sc(C)c(C(=O)NC2CC3(C2)CC(C(=O)O)C3)c1Cc1ccc(-c2cccc(C(F)(F)F)c2)cc1` (centres unmarked) [Example 44, 6-(2,5-dimethyl-4-((3′-(trifluoromethyl)-[1,1′-biphenyl]-4-yl)methyl)thiophene-3-carboxamido)spiro[3.3]heptane-2-carboxylic acid], the IC50 was 500 to 5000 nM on hEP2 and less than 500 nM on hEP4.

For `CCOc1cc(F)cc(-c2ccc(Cc3c(C)sc(C)c3C(=O)NC3CC4(C3)CC(C(=O)O)C4)cc2)c1` (centres unmarked) [Example 45, 6-(4-((3′-ethoxy-5′-fluoro-[1,1′-biphenyl]-4-yl)methyl)-2,5-dimethylthiophene-3-carboxamido)spiro[3.3]heptane-2-carboxylic acid], the values for the IC50 at hEP2 and on hEP4 were 500 to 5000 nM and less than 500 nM, respectively.

For `Cc1sc(C)c(C(=O)NC2CC3(C2)CC(C(=O)O)C3)c1Cc1ccc(-c2cc(F)cc(OC(C)C)c2)cc1` (centres unmarked) [Example 46, 6-(4-((3′-fluoro-5′-isopropoxy-[1,1′-biphenyl]-4-yl)methyl)-2,5-dimethylthiophene-3-carboxamido)spiro[3.3]heptane-2-carboxylic acid], the IC50 on hEP2 and at hEP4 was 500 to 5000 nM each time.

For `COc1ccc(F)c(-c2ccc(Cc3c(C)sc(C)c3C(=O)NC3CC4(C3)CC(C(=O)O)C4)cc2)c1` (centres unmarked) [Example 47, 6-(4-((2′-fluoro-5′-methoxy-[1,1′-biphenyl]-4-yl)methyl)-2,5-dimethylthiophene-3-carboxamido)spiro[3.3]heptane-2-carboxylic acid], the IC50 on hEP2 is greater than 10000 nM; at hEP4, 500 to 5000 nM.

Regarding `COc1ccc(F)cc1-c1ccc(Cc2c(C)sc(C)c2C(=O)NC2CC3(C2)CC(C(=O)O)C3)cc1` (centres unmarked) [Example 48, 6-(4-((5′-fluoro-2′-methoxy-[1,1′-biphenyl]-4-yl)methyl)-2,5-dimethylthiophene-3-carboxamido)spiro[3.3]heptane-2-carboxylic acid], the values for the IC50 at hEP2 and on hEP4 were greater than 10000 nM and less than 500 nM, respectively.

`Cc1sc(C)c(C(=O)NC2CC3(C2)CC(C(=O)O)C3)c1Cc1ccc(-c2ccccc2F)cc1` (centres unmarked) [Example 49, 6-(4-((2′-fluoro-[1,1′-biphenyl]-4-yl)methyl)-2,5-dimethylthiophene-3-carboxamido)spiro[3.3]heptane-2-carboxylic acid]: the IC50 on hEP2 and at hEP4 was greater than 10000 nM in each case.

With `COc1cc(-c2ccc(Cc3c(C)sc(C)c3C(=O)NC3CC4(C3)CC(C(=O)O)C4)cc2)ccn1` (centres unmarked) [Example 50, 6-(4-(4-(2-methoxypyridin-4-yl)benzyl)-2,5-dimethylthiophene-3-carboxamido)spiro[3.3]heptane-2-carboxylic acid], the IC50 is greater than 10000 nM on hEP2 and less than 500 nM on hEP4.

As to `COc1cc(-c2ccc(Cc3c(C)sc(C)c3C(=O)NC3CC4(C3)CC(C(=O)O)C4)cc2)cc(C(F)(F)F)c1` (centres unmarked) [Example 51, 6-(4-((3′-methoxy-5′-(trifluoromethyl)-[1,1′-biphenyl]-4-yl)methyl)-2,5-dimethylthiophene-3-carboxamido)spiro[3.3]heptane-2-carboxylic acid], the IC50 was 500 to 5000 nM at hEP2 and less than 500 nM at hEP4.

`Cc1sc(C)c(C(=O)NC2CC3(C2)CC(C(=O)O)C3)c1Cc1ccc(-c2cc(F)cc(F)c2)cc1` (centres unmarked) [Example 52, 6-(4-((3′,5′-difluoro-[1,1′-biphenyl]-4-yl)methyl)-2,5-dimethylthiophene-3-carboxamido)spiro[3.3]heptane-2-carboxylic acid]: the IC50 on hEP2 was 5000 to 10000 nM; on hEP4 it was less than 500 nM.

Regarding `COc1cc(OC)cc(-c2ccc(Cc3c(C)sc(C)c3C(=O)NC3CC4(C3)CC(C(=O)O)C4)cc2)c1` (centres unmarked) [Example 53, 6-(4-((3′,5′-dimethoxy-[1,1′-biphenyl]-4-yl)methyl)-2,5-dimethylthiophene-3-carboxamido)spiro[3.3]heptane-2-carboxylic acid], the results for the IC50 at hEP2 and on hEP4 were 500 to 5000 nM and less than 500 nM, respectively.

On to `Cc1sc(C)c(C(=O)NC2CC3(C2)CC(C(=O)O)C3)c1Cc1ccc(-c2cc(N)cc(F)c2)cc1` (centres unmarked) [Example 54, 6-(4-((3′-amino-5′-fluoro-[1,1′-biphenyl]-4-yl)methyl)-2,5-dimethylthiophene-3-carboxamido)spiro[3.3]heptane-2-carboxylic acid], for which the IC50 at hEP2 was 500 to 5000 nM; at hEP4, less than 500 nM.

Take `CSc1cc(F)cc(-c2ccc(Cc3c(C)sc(C)c3C(=O)NC3CC4(C3)CC(C(=O)O)C4)cc2)c1` (centres unmarked) [Example 55, 6-(4-((3′-fluoro-5′-(methylthio)-[1,1′-biphenyl]-4-yl)methyl)-2,5-dimethylthiophene-3-carboxamido)spiro[3.3]heptane-2-carboxylic acid]: the IC50 on hEP2 was 500 to 5000 nM; at hEP4, less than 500 nM.
